Data as given in patent US20220409727A1, “Metal Complexes Bearing Bisstyryl-Bipyridine Ligand and Their Use as Photosensitizer Agent in One and Two-Photon Photodynamic Therapy” (Paris Sciences et Lettres, priority 2019, published 2022).
Like-named read-outs stand apart in the source and are kept apart here.

Legend:
[1] = tested on: non-cancerous retinal pigment epithelium (RPE-1) cells; test: (Photo-)cytotoxicity on 2D cell monolayers, resazurin assay, RPE-1; details: for PI (480 nm): RPE-1, dark vs 480 nm (10 min, 3.1 J/cm^2);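 on all read-outs here: cells exposed to compound 4 h, medium exchanged, then irradiated or kept dark, 44 h further growth, viability by resorufin fluorescence (ex 540 nm, em 590 nm)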
Protocol: The human glioblastoma astrocytoma (U373) cell line was cultured in MEM medium supplemented with 10% FBS, 1% NEAA (non-essential amino-acids) and 1% penicillin/streptomycin. […] The human retinal epithelial cells (RPE-1, non-cancerous cells immortalized with hTERT) were cultured in DMEM-F12 medium supplemented with 10% FBS and 1% penicillin/streptomycin. All cell lines were obtained from the American Type Culture Collection (ATCC) and cultured at 37° C. and 5% CO2. Before an experiment, the cells were passaged three times.
The cytotoxicity of the compounds was assessed by measuring cell viability using a fluorometric resazurin assay. The cultivated cells were seeded in triplicates in 96 well plates with a density of 4000 cells per well in 100 μL of media. After 24 h, the medium was removed and the cells were treated with increasing concentrations of the compound diluted in cell media achieving a total volume of 200 μL. The cells were incubated with the compound for 4 h. After this time, the media was removed and replaced with 200 μL of fresh medium. For the phototoxicity studies, the cells were exposed to light with an Atlas Photonics LUMOS BIO irradiator. Each well was constantly illuminated with either a 480 nm or 540 nm irradiation. During this time, the temperature was maintained constantly at 37° C. The cells were grown in the incubator for additional 44 h. For the determination of the dark cytotoxicity, the cells were not irradiated and after the medium exchange directly incubated for 44 h. After this time, the medium was replaced with fresh medium containing resazurin with a final concentration of 0.2 mg/mL. After 4 h incubation, the amount of the fluorescent product resorufin was determined upon excitation at 540 nm and measurement its emission at 590 nm using a SpectraMax M2 Microplate Reader (Molecular Devices).
The obtained data was analyzed with the GraphPad Prism software.

[2] = tested on: human cervical carcinoma (HeLa) cells; test: (Photo-)cytotoxicity on 2D cell monolayers, resazurin assay, HeLa; format: cell-based; details: for PI (480 nm): dark vs 480 nm (10 min, 3.1 J/cm^2)
Source text: Before an experiment, the cells were passaged three times.

HeLa MCTS = test: (Photo-)cytotoxicity on 3D multicellular tumor spheroids (ATP, CellTiter-Glo 3D); format: cell-based, human; details: for IC50: Homo sapiens
Protocol: autoclave. The hot emulsion was transferred into wells (50 μL per well) of a 96 cell culture well plate. The plates were exposed for 3 h to UV irradiation to ensure the sterility and allow the agarose solution to cool down. After this time, the agarose was overlayed with a HeLa cell suspension at a density of 3000 cells per well in 150 μL of media. The MCTS were cultivated and maintained at 37° C. in a cell culture incubator at 37° C. with 5% CO2 atmosphere. The culture media was replaced every two days. Within two-three days MCTs were formed from the cell suspension. The formation as well as integrity, diameter and volume of the MCTs was monitored by an Axio Observer Z1 (Carl Zeiss) phase contrast microscope. The volume was calculated using the following formula: V=4/3πr^3. The luminescence images along the z-axis were captured by a one-(λex=458 nm, λem=600-750 nm) or two-photon (λex=800 nm, λem=600-750 nm) excitation in the z-stack mode with a an LSM 880 (Carl Zeiss) laser scanning confocal microscope equipped with Argon and a Coherent Chameleon 2-Photon laser and a GaAsP detector.
The cytotoxicity of the compounds in 3D multicellular tumor spheroids (MCTS) was assessed by measurement of the ATP concentration. MCTS were treated with increasing concentrations of the compound (2% DMSO, v %) by replacing 50% of the media with drug supplemented media and incubation for 12 h. After this time, the MCTS were divided in three identical groups. The first group was strictly kept in the dark. The second group was exposed to a one-photon irradiation (500 nm, 10 J/cm^2) using a LED and the third group was exposed to a two-photon irradiation (800 nm, 10 J/cm^2) with a section interval of 5 μm using a LSM 880 (Carl Zeiss, Germany) laser scanning confocal microscope equipped with a Coherent Chameleon 2-Photon laser. After the irradiation, all groups were incubated additional 48 h. The ATP concertation was measured using a CellTiter-Glo 3D Cell Viability kit (Promega) by measuring the generated chemiluminescence with an infinite M200 PRO (Tecan) plate reader.

[3] = tested on: mouse colon carcinoma (CT-26) cells; test: (Photo-)cytotoxicity on 2D cell monolayers, resazurin assay, CT-26; details: for IC50: Mus musculus
[4] = tested on: mouse colon carcinoma (CT-26) cells
[5] = tested on: human glioblastoma astrocytoma (U373) cells
[6] = tested on: human glioblastoma astrocytoma (U373) cells; test: (Photo-)cytotoxicity on 2D cell monolayers, resazurin assay, U373; details: for IC50: Homo sapiens, U373 MG
[7] = dark, 4 h incubation, compounds 1-3 as chloride salts, read-out: IC50 dark
[8] = read-out: IC50 480 nm (10 min, 3.1 J/cm^2), irradiation 480 nm (10 min, 3.1 J/cm^2), compounds 1-3 as chloride salts

| Compound | PI (480 nm) [1] | PI (480 nm) [2] | IC50 [2, 7] [µM] | IC50 [2, 8] [µM] | further results |
| --- | --- | --- | --- | --- | --- |
| F[P-](F)(F)(F)(F)F.F[P-](F)(F)(F)(F)F.Fc1ccc(C=Cc2ccnc(-c3cc(C=Cc4ccc(F)cc4)ccn3)c2)cc1.[Ru+2].c1ccc(-c2ccccn2)nc1.c1ccc(-c2ccccn2)nc1 [Compound 14, [Ru(bpy)2((E,E′)-4,4′-Bis[p-fluorostyryl]-2,2′-bipyridine)][PF6]2] | >68 | >125 | > 100 | 0.8 ± 0.1 | – |
| COc1cccc(/C=C/c2ccnc(-c3cc(/C=C/c4cccc(OC)c4)ccn3)c2)c1.F[P-](F)(F)(F)(F)F.F[P-](F)(F)(F)(F)F.[Ru+2].c1ccc(-c2ccccn2)nc1.c1ccc(-c2ccccn2)nc1 [Compound 12, [Ru(bpy)2((E,E′)-4,4′-Bis[m-methoxystyryl]-2,2′-bipyridine)][PF6]2] | >63 | >167 | > 100 | 0.6 ± 0.3 | – |
| COc1ccc(/C=C/c2ccnc(-c3cc(/C=C/c4ccc(OC)cc4)ccn3)c2)cc1.F[P-](F)(F)(F)(F)F.F[P-](F)(F)(F)(F)F.[Ru+2].c1cnc(-c2cnccn2)cn1.c1cnc(-c2cnccn2)cn1 [Compound 19, [Ru(bpz)2((E,E′)-4,4′-Bis[p-methoxystyryl]-2,2′-bipyridine)][PF6]2] | – | >2 | > 100 | 59 ± 8 | – |
| [Ru(bpy)2((E,E′)-4,4′-Bis[p-aminostyryl]-2,2′-bipyridine)][PF6]2 [Compound 17] | >13 | >71 | > 100 | 1.4 ± 0.1 | – |
| COc1ccc(/C=C/c2ccnc(-c3cc(/C=C/c4ccc(OC)cc4)ccn3)c2)cc1.F[P-](F)(F)(F)(F)F.F[P-](F)(F)(F)(F)F.[Os+2].c1ccc(-c2ccccn2)nc1.c1ccc(-c2ccccn2)nc1 [Compound 16, [Os(bpy)2((E,E′)-4,4′-Bis[p-methoxystyryl]-2,2′-bipyridine)][PF6]2] | >3 | >4 | > 100 | 27 ± 6 | – |
| C1=Cc2nc1c(-c1ccccc1)c1ccc([nH]1)c(-c1ccccc1)c1nc(c(-c3ccccc3)c3ccc([nH]3)c2-c2ccccc2)C=C1 [Compound H2TPP, tetraphenylporphyrin, reference compound] | – | – | – | – | IC50 (HeLa MCTS; dark, 12 h incubation, read-out: IC50 dark): > 100 µM; IC50 (HeLa MCTS; light or radiation study, 1-Photon irradiation (500 nm, 10 J/cm^2), read-out: IC50 1-Photon irradiation (500 nm, 10 J/cm^2)): > 100 µM; IC50 (HeLa MCTS; light or radiation study, 2-Photon irradiation (800 nm, 10 J/cm^2, section interval of 5 μm), read-out: IC50 2-Photon irradiation (800 nm, 10 J/cm^2)): > 100 µM; PI (2-Photon) (HeLa MCTS; dark vs 2-Photon irradiation (800 nm, 10 J/cm^2)): >100 |
| COc1ccccc1C=Cc1ccnc(-c2cc(C=Cc3ccccc3OC)ccn2)c1.F[P-](F)(F)(F)(F)F.F[P-](F)(F)(F)(F)F.[Ru+2].c1ccc(-c2ccccn2)nc1.c1ccc(-c2ccccn2)nc1 [Compound 13, [Ru(bpy)2((E,E′)-4,4′-Bis[o-methoxystyryl]-2,2′-bipyridine)][PF6]2] | >66 | >124 | 62 ± 10 | 0.5 ± 0.1 | – |
| F[P-](F)(F)(F)(F)F.F[P-](F)(F)(F)(F)F.Oc1ccc(/C=C/c2ccnc(-c3cc(/C=C/c4ccc(O)cc4)ccn3)c2)cc1.[Ru+2].c1ccc(-c2ccccn2)nc1.c1ccc(-c2ccccn2)nc1 [Compound 15, [Ru(bpy)2((E,E′)-4,4′-Bis[p-hydroxystyryl]-2,2′-bipyridine)][PF6]2] | >9 | >100 | > 100 | 1 ± 0.3 | – |
| COc1ccc(/C(C)=C/c2ccnc(-c3cc(/C=C(\C)c4ccc(OC)cc4)ccn3)c2)cc1.F[P-](F)(F)(F)(F)F.F[P-](F)(F)(F)(F)F.[Ru+2].c1ccc(-c2ccccn2)nc1.c1ccc(-c2ccccn2)nc1 [Compound 18] | >3 | >6 | > 100 | 16.7 ± 0.7 | – |
| C=CC1=C(C)c2cc3[nH]c(cc4nc(cc5[nH]c(cc1n2)c(C)c5CCC(=O)O)C(CCC(=O)O)=C4C)c(C)c3C=C [PpIX, Protoporphyrin IX, reference compound] | >26.3 | >40.0 | – | – | PI (480 nm) ([3]; CT-26, dark vs 480 nm (10 min, 3.1 J/cm^2)): 7.0; PI (540 nm) ([3]; CT-26, dark vs 540 nm (40 min, 9.5 J/cm^2)): 5.6; IC50 ([3]; CT26, 4 h, read-out: IC50 dark): 2.8 ± 0.5 µM; IC50 ([3]; CT26, light or radiation study, 40 min, read-out: IC50 540 nm (40 min, 9.5 J/cm^2)): 0.5 ± 0.2 µM; IC50 [4]: 0.4 ± 0.2 µM; PI (540 nm) ([1]; RPE-1, dark vs 540 nm (40 min, 9.5 J/cm^2)): >30.3; IC50 [5]: 1.2 ± 0.3 µM; IC50 ([6]; 4 h, read-out: IC50 dark): 10.1 ± 0.7 µM; IC50 ([6]; light or radiation study, 10 min, read-out: IC50 480 nm (10 min, 3.1 J/cm^2)): 1.3 ± 0.2 µM; PI (480 nm) ([6]; U373, dark vs 480 nm (10 min, 3.1 J/cm^2)): 7.8; PI (540 nm) ([6]; U373, dark vs 540 nm (40 min, 9.5 J/cm^2)): 8.4; IC50 ([2]; Homo sapiens, dark, 4 h incubation, compounds 1-3 as chloride salts, read-out: IC50 dark): > 100 µM; IC50 ([2]; Homo sapiens, light or radiation study, 10 min, read-out: IC50 480 nm (10 min), irradiation 480 nm (10 min, 3.1 J/cm^2), compounds 1-3 as chloride salts): 2.5 ± 0.1 µM; IC50 ([2]; Homo sapiens, light or radiation study, 40 min, read-out: IC50 540 nm (40 min), irradiation 540 nm (40 min, 9.5 J/cm^2), compounds 1-3 as chloride salts): 2.1 ± 0.3 µM; PI (540 nm) ([2]; dark vs 540 nm (40 min, 9.5 J/cm^2)): >47.6 |
